In patent publication US7033604B2, “Composition for topical administration” (Sucampo AG, priority 2001, dated 2006):
Marks after values point to notes of the source that are not given here.

Assays:
[1] = test system: Pseudomonas aeruginosa IID-1210; assay: Anti-microbial test: viable bacterial counts in wounded rabbit cornea inoculated with Pseudomonas aeruginosa; assay type: in vivo; settings: for Colony forming units per gram of cornea Mean ± SE: cornea excised 4 hours after administration, Japanese white rabbits, 6 eyes
Method: Single colony isolate of Pseudomonas aeruginosa IID-1210 (provided by Department of Ophthalmology, Yokohama City University School of Medicine, Japan) on NAC agar plate was inoculated in 2 mL of heart infusion broth, and kept for overnight at 37° C. One hundred microliters of the overnight culture was inoculated in 10 mL of heart infusion broth, and then grown for about 12 hours at 37° C. with shaking. Twelve Japanese white rabbits (13 weeks old, Std: JW/CSK, Japan SLC, Inc.) were anesthetized by intravenous injection of pentobarbital sodium (25 mg/kg), and then topical anesthesia was made by instillation of 0.4% oxybuprocaine hydrochloride to both eyes. The corneal wound was produced bilaterally using a 6-mm trephine and 27-gauge needle according to the method described by Hatano H et al. (Japanese Review of Clinical Ophthalmology 79: 1153, 1985). Forty microliters of the bacterial suspension prepared above was instilled onto the wounded cornea twice (Day 1, 21:00). After bacterial inoculation, the rabbits were divided into 4 groups (three rabbits-six eyes/group). Fifty microliters of each test substance or vehicle was topically applied to both eyes of each animal once 12 hours after bacterial inoculation (Day 2, 9:00). […] Four hours after administration of test substances, the animals were sacrificed with an intravenous overdose of pentobarbital sodium, eyes were enucleated, and then corneas were excised using a 6-mm trephine. After weighing, each cornea was homogenized in 1 mL of sterile physiological saline. Aliquot (0.1 mL) of each homogenate was plated on NAC agar, and incubated for 24 hours at 37° C. The colonies were then counted. All quantitative cultures were run in triplicate, and the arithmetic mean of three measurements was determined for each cornea. Results were expressed as the number of organisms (determined by measures of colony forming units [CFU]) per gram of corneal weight.

[2] = test system: Experimental Pseudomonas keratitis; assay: Anti-inflammatory test: slit lamp scoring of conjunctival and corneal inflammation in experimental Pseudomonas keratitis; assay type: in vivo, Japanese white rabbits; settings: for Score (conjunctiva) Mean ± SE: conjunctival inflammation at 48 hours after bacterial inoculation, sum of scores; for Score (conjunctiva) Mean ± SE / Score (cornea) Mean ± SE: 6 eyes; for Score (cornea) Mean ± SE: corneal inflammation at 60 hours after bacterial inoculation, sum of corneal opacity (0–8) and corneal ulcer (0–3)
Method: Experimental Pseudomonas keratitis was induced for 12 Japanese white rabbits (13 weeks old, Std: JW/CSK) as described in Test Experiment 1. After bacterial inoculation, the rabbits were divided into 4 groups (three rabbits-six eyes/group). Fifty microliters of each test substance or vehicle was topically applied to both eyes of each animal 4 times a day at intervals of 4 hours beginning 12 hours after the bacterial inoculation. The test substance and vehicle were the same as those used in Test Example 1. Rabbit eyes were examined with a slit lamp biomicroscope, and severity of conjunctival inflammation at 48 hours after bacterial inoculation and corneal inflammation at 60 hours after bacterial inoculation were evaluated by assigning a numerical value to the following signs based on the method described by Kuriyama H et al. Corneal inflammation was evaluated by sums of the scores of corneal opacity (score 0–8) and corneal ulcer (score 0–3). Conjunctival inflammation was evaluated by sums of the scores of redness of palpebral conjunctival inflammation (score 0–4), edema of palpebral conjunctiva (score 0–4), nictitating membrane status (score 0–3) and discharge (score 0–3).

[3] = 0.06% FK-506, 50 microliters topically 4 times a day from 12 hours after inoculation
[4] = 0.3% ofloxacin, 50 microliters topically 4 times a day from 12 hours after inoculation

| Structure (SMILES) | Colony forming units per gram of cornea Mean ± SE ([1]; 0.06% FK-506, 50 microliters topically to both eyes once 12 hours after bacterial inoculation) | Effect on viable Pseudomonas counts (in words) ([1]; 0.06% FK-506, single topical application, compared with vehicle treatment) | Effect on conjunctival inflammation (in words) ([2]; 0.06% FK-506, 4 times a day, 48 hours after inoculation) | Effect on corneal inflammation (in words) ([2]; 0.06% FK-506, 4 times a day, 60 hours after inoculation) | Score (conjunctiva) Mean ± SE [2, 3] | Score (cornea) Mean ± SE [2, 3] | Colony forming units per gram of cornea Mean ± SE ([1]; 0.3% ofloxacin, 50 microliters topically to both eyes once 12 hours after bacterial inoculation) | Score (conjunctiva) Mean ± SE [2, 4] | Score (cornea) Mean ± SE [2, 4] |
| --- | --- | --- | --- | --- | --- | --- | --- | --- | --- |
| C=CCC1/C=C(\C)CC(C)CC(OC)C2OC(O)(C(=O)C(=O)N3CCCCC3C(=O)OC(/C(C)=C/C3CCC(O)C(OC)C3)C(C)C(O)CC1=O)C(C)CC2OC (stereo not drawn) [FK-506, 17-allyl-1,14-dihydroxy-12-[2-(4-hydroxy-3-methoxycyclohexyl)-1-methylvinyl]-23,25-dimethoxy-13,19,21,27-tetramethyl-11,28-dioxa-4-azatricyclo [22.3.1.0^4,9]octacos-18-ene-2,3,10,16-tetraone] | 31225 ± 7204 Colony forming units per gram of cornea | decreased the viable Pseudomonas counts as compared with vehicle treatment, but not significantly | tended to decrease the conjunctival inflammation | tended to decrease the corneal inflammation | 6.7 ± 0.4 | 6.0 ± 0.0 |  |  |  |
| CC1COc2c(N3CCN(C)CC3)c(F)cc3c(=O)c(C(=O)O)cn1c23 (stereo not drawn) [ofloxacin] |  |  |  |  |  |  | 0^a),b) Colony forming units per gram of cornea | 6.0 ± 0.5 | 2.1 ± 0.4^a) |
